Biological target: T1, 5-hydroxytryptamine receptor 2C (Homo sapiens, UniProt P28335)
T1 sequence (P28335 whole entry): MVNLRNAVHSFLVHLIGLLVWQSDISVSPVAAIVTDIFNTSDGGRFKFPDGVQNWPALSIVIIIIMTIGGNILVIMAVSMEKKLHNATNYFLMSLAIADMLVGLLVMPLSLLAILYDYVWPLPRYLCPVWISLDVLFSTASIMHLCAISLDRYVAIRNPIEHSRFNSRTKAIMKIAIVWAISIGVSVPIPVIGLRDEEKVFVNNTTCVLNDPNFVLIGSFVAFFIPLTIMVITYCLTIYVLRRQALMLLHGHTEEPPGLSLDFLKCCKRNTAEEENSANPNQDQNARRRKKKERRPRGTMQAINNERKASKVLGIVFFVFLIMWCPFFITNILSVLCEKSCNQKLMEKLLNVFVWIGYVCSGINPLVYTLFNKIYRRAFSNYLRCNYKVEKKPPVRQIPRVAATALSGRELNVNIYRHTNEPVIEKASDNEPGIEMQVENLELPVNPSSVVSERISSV
Experiment: ChEBML_3050
Source text: Binding affinity towards 5-hydroxytryptamine 2C receptor by displacement of [3H]N-methyl-mesulergine

| Structure (SMILES) | IC50 [µM] |
| --- | --- |
| CCCN1CCN(CCCCN2C(=O)CC3(CCCC3)CC2=O)CC12COc1cccc(OC)c1C2 (stereo not drawn) | 30.9 |
| CCCN(CCC)CC1(N(CCC)CCC)COc2cccc(OC)c2C1 (stereo not drawn) | 30.2 |
| CCCN1CCN(Cc2ccccc2)CC12COc1cccc(OC)c1C2 (stereo not drawn) | 38.9 |
| COc1cccc2c1CC(CNCCCCN1C(=O)CC3(CCCC3)CC1=O)CO2 (stereo not drawn) | 0.169 |
| O=C1CC2(CCCC2)CC(=O)N1CCCCNCC1COc2ccccc2C1 (stereo not drawn) | 1.23 |
| COc1cccc2c1CC1(CCCN1CCCCN1C(=O)CC3(CCCC3)CC1=O)CO2 (racemic) [(+/-) 8-{4-[5-methoxyspiro[3,4-dihydro-2H-chromene-3,2'-(tetrahydro-1'H-pyrrole)]-1-yl]butyl}-8-azaspiro[4.5]decane-7,9-dione] | 10.5 |
| CCCN1CCN(CCC)C2(COc3cccc(OC)c3C2)C1 (stereo not drawn) | 468 |
| CCCN(CCCCN1C(=O)CC2(CCCC2)CC1=O)CC1COc2cccc(OC)c2C1 (stereo not drawn) | 3.16 |

Reference: BindingDB's records for doi:10.1016/0960-894X(96)00174-6 (n/a, 1996)
